pIC50: −log10 of the molar value.
Test system: 454973-116-R2-J3-PDC spheroids, viability, % test/control
Assay: Anticancer human tumor 454973-116-R2-J3-PDC patient-derived pancreatic carcinoma cell line growth inhibition [GQUAD]
Details: spheroids with HUVEC and MSC; for pIC50: curve of first compound; for viability, T/C: stronger effect = lower value
Text: DNA G-quadruplex Stabilizer Agents in Combinations in Complex Spheroids
A high-throughput screen of multi-cell type tumor spheroids was designed to identify active combinations of DNA G-quadruplex stabilizer agents and targeted small molecules. Complex spheroids include a stromal component modeled by human endothelial cells (HUVEC) and fibroblasts modeled by human mesenchymal stem cells (MSCs). The concentration ranges selected for each drug and investigational agent were based upon clinically achievable concentrations if the clinical Cmax of the agent was known.
Compounds. The drugs and investigational agents: pidnarulex (CX-5461; NSC782164), APTO-253 (NSC789042), BRACO-19 (NSC847499), peposertib (NSC802822), ceralasertib (NSC780249), elimusertib (NSC800525), camonsertib (NSC841442), AZD-1390 (NSC803789), olaparib (NSC753686), talazoparib (NSC767125), ART-558 (NSC835418), sotorasib (NSC818433), MRTX-1133 (NSC836407), SN-38 (NSC673596), topotecan (NSC609699), etoposide (NSC141540), doxorubicin (NSC123127), gemcitabine (NSC613327), 5-fluorouracil (NSC19893), paclitaxel (NSC125973), vemurafenib (NSC761431), panobinostat (NSC761190), R-306465 (JNJ-16241199; NSC773264), adavosertib (NSC754352), TP-3654 (NSC805149), carboplatin (NSC241240), KSQ-4279 (NSC840948), and staurosporine (NSC755774) were obtained from the National Cancer Institute (NCI) Developmental Therapeutics Program Chemical Repository (34). The FDA-approved anticancer drug set is available from the NCI Developmental Therapeutics Program. […] The stock solutions were prepared in dimethyl sulfoxide (DMSO, Sigma-Aldrich, St. Louis, MO, cat. D2650) at 800-fold the tested concentration and stored at -70 degrees C prior to their use. All drugs and investigational agents were tested over a range starting from a high concentration at or near the clinical Cmax and decreasing in half-log increments. If the clinical Cmax for an agent had not been determined, the highest concentration tested was 10 microM.
2.3 Cell Culture. All cells were maintained in an incubator at 37 degrees C and 5% CO2 with 95% humidity. The PDC lines were cultured according to standard operating procedures established by the NCI PDMR. All PDCs were thawed and cultured in Matrigel-coated flasks prepared with a working solution of 1X Ham's F-12 nutrient mix, without supplementation (Invitrogen, cat. 11765054), 100 U/mL penicillin-streptomycin (Invitrogen, cat. 15140122), and 2.5% Matrigel (Corning Inc., cat. 354248) for the first three passages. The 857933-349-R-J2-PDC line was cultured in 6C/Colon 1B media, which includes advanced DMEM/F-12 (Thermo Fisher Scientific, cat. 12634028), 10 mM HEPES (Thermo Fisher Scientific, cat. 15630080), 1X GlutaMAX supplement (Thermo Fisher Scientific, cat. 35050061), 0.1 mg/mL primocin (InvivoGen, cat. ant-pm-2), 10% defined fetal bovine serum, heat inactivated (HyClone Laboratories Inc., cat. SH30070.03HI), 50% L-WRN conditioned media (ATCC, cat. CRL-3276), 1.25 mM N-Acetyl-L-cysteine (Sigma-Aldrich, cat. A9165), 10 mM nicotinamide (Sigma-Aldrich, cat. N0636), 1X B-27 supplement (Thermo Fisher Scientific, cat. 17504044), 1X N-2 supplement (Thermo Fisher Scientific, cat. 17502048), 10 microM Y-27632 dihydrochloride (Tocris Bioscience, cat. 1254), and 50 ng/mL human EGF recombinant protein (Thermo Fisher Scientific, cat. PHG0311). The 485176-168-R4-J1-PDC line was cultured in Panc media, which includes all 6C/Colon 1B media components plus 100 ng/mL human FGF-10 (Thermo Fisher Scientific, cat. 100-26), 500 nM SB-431542 (Selleckchem, cat. S1067), and gastrin (Tocris, cat. 3006).
[…]
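Further: spheroids exposed to compounds for seven days.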

COc1ccc([C@@H](O)c2cc(-c3ncnc4cc(N5CCOCC5)ccc34)c(F)cc2Cl)nn1 + Cc1[nH]c2ccc(F)cc2c1-c1nc2c3cccnc3c3ncccc3c2[nH]1
pIC50 (second compound 0.0316 µM): 5.13
pIC50 (second compound 0.1 µM): < 5.00
pIC50 (second compound 0.316 µM): < 5.00
pIC50 (second compound 1 µM): 5.02
pIC50 (second compound 3.16 µM): < 5.00
pIC50 (second compound 10 µM): 5.15
viability, T/C (second compound 0.0316 µM, first compound 0.0316 µM): 120%
viability, T/C (second compound 0.0316 µM, first compound 0.1 µM): 101%
viability, T/C (second compound 0.0316 µM, first compound 0.316 µM): 106%
viability, T/C (second compound 0.0316 µM, first compound 1 µM): 87.6%
viability, T/C (second compound 0.0316 µM, first compound 3.16 µM): 59.3%
viability, T/C (second compound 0.0316 µM, first compound 10 µM): 46.9%
viability, T/C (second compound 0.1 µM, first compound 0.0316 µM): 115%
viability, T/C (second compound 0.1 µM, first compound 0.1 µM): 104%
viability, T/C (second compound 0.1 µM, first compound 0.316 µM): 95.3%
viability, T/C (second compound 0.1 µM, first compound 1 µM): 85.4%
viability, T/C (second compound 0.1 µM, first compound 3.16 µM): 75%
viability, T/C (second compound 0.1 µM, first compound 10 µM): 55.3%
viability, T/C (second compound 0.316 µM, first compound 0.0316 µM): 99.3%
viability, T/C (second compound 0.316 µM, first compound 0.1 µM): 106%
viability, T/C (second compound 0.316 µM, first compound 0.316 µM): 85.4%
viability, T/C (second compound 0.316 µM, first compound 1 µM): 91.5%
viability, T/C (second compound 0.316 µM, first compound 3.16 µM): 65.9%
viability, T/C (second compound 0.316 µM, first compound 10 µM): 53.5%
viability, T/C (second compound 1 µM, first compound 0.0316 µM): 98.2%
viability, T/C (second compound 1 µM, first compound 0.1 µM): 97.3%
viability, T/C (second compound 1 µM, first compound 0.316 µM): 96.2%
viability, T/C (second compound 1 µM, first compound 1 µM): 75.8%
viability, T/C (second compound 1 µM, first compound 3.16 µM): 70.6%
viability, T/C (second compound 1 µM, first compound 10 µM): 48.5%
viability, T/C (second compound 3.16 µM, first compound 0.0316 µM): 94.8%
viability, T/C (second compound 3.16 µM, first compound 0.1 µM): 94.1%
viability, T/C (second compound 3.16 µM, first compound 0.316 µM): 92.3%
viability, T/C (second compound 3.16 µM, first compound 1 µM): 91.2%
viability, T/C (second compound 3.16 µM, first compound 3.16 µM): 66%
viability, T/C (second compound 3.16 µM, first compound 10 µM): 50.7%
viability, T/C (second compound 10 µM, first compound 0.0316 µM): 89.2%
viability, T/C (second compound 10 µM, first compound 0.1 µM): 80.2%
viability, T/C (second compound 10 µM, first compound 0.316 µM): 93.9%
viability, T/C (second compound 10 µM, first compound 1 µM): 72.2%
viability, T/C (second compound 10 µM, first compound 3.16 µM): 66.9%
viability, T/C (second compound 10 µM, first compound 10 µM): 43.4%

— PubChem BioAssay AID2060508 (Molecular Pharmacology Branch, DTP, NCI, 2025)
